Several values for one entry are separate records, joined by “and”; a condition that tells them apart may be missing. Equal values may be shown once.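 In this assay, cells in 96-well plates receive the compound at five concentrations for 48 hours. Endpoints are linearly interpolated between the surrounding concentrations. GI50 = concentration required for 50% inhibition of growth. TGI: concentration producing complete growth inhibition.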

Among the test systems are OVCAR-5 ovarian; MALME-3M melanoma; SNB-75 CNS; RXF 393 renal; 786-0 renal; SW-620 colon; A549 NSCLC; MCF7 breast; PC-3 prostate; HS 578T breast.
What all share (test): NCI anticancer screen, dose series, 48 h

Turning to `C=C1CC[C@@H]2[C@](C)(COC(C)=O)[C@@H](O)CC[C@@]2(C)[C@@H]1COc1ccc2ccc(=O)oc2c1`, the GI50 in the assay on OVCAR-5 ovarian was more than 100 µM; in the assay on MALME-3M melanoma, more than 100 µM; in the assay on SNB-75 CNS, 17.6 µM; with RXF 393 renal it was 14.7 µM; with 786-0 renal, 31 µM; in the assay with SW-620 colon, more than 100 µM. For the same compound, the GI50 is more than 100 µM with A549 NSCLC, more than 100 µM in the assay with MCF7 breast, more than 100 µM in the assay with PC-3 prostate and 29.9 µM with HS 578T breast. In addition, the TGI in the assay on OVCAR-5 ovarian was more than 100 µM; in the assay with MALME-3M melanoma, more than 100 µM; with SNB-75 CNS it was more than 100 µM; with RXF 393 renal, 58.9 µM; in the assay on 786-0 renal it was more than 100 µM; with SW-620 colon, more than 100 µM. In addition, the TGI in the assay on A549 NSCLC, in the assay on MCF7 breast, in the assay on PC-3 prostate and with HS 578T breast was more than 100 µM in each case.
Turning to `COc1cc2c(cc1OCCCCOc1cc3c(cc1OC)C(=O)N1CCC[C@H]1CN3)N=C[C@@H]1CCCN1C2=O`, the GI50 in the assay with OVCAR-5 ovarian is 3.09 µM; in the assay with MALME-3M melanoma it was 1.47 µM; in the assay with SNB-75 CNS it was 3.58 µM; in the assay on RXF 393 renal, 0.29 µM; in the assay with 786-0 renal it was 2.94 µM; in the assay with SW-620 colon, 0.931 µM. In addition, the GI50 was 9.21 µM in the assay on A549 NSCLC, 0.346 µM in the assay with MCF7 breast, 2.02 µM with PC-3 prostate and 0.823 µM with HS 578T breast. In addition, the TGI in the assay on OVCAR-5 ovarian is more than 28.7 µM; with MALME-3M melanoma it was 4.1 µM; with SNB-75 CNS, 16.9 µM; in the assay with RXF 393 renal it was 1.45 µM; in the assay on 786-0 renal, more than 100 µM; in the assay on SW-620 colon it was more than 22.9 µM. Further, the TGI in the assay on A549 NSCLC was more than 100 µM; in the assay on MCF7 breast, 1.76 µM; with PC-3 prostate, 97.9 µM; in the assay with HS 578T breast, 2.63 µM.
Consider `Cc1ccc(C(=O)Nc2ccc(CN3CCN(C)CC3)c(C(F)(F)F)c2)cc1C#Cc1cnc2cccnn12`, for which the GI50 was 0.41 µM and 0.808 µM in the assay with OVCAR-5 ovarian; 0.474 µM in the assay with MALME-3M melanoma; 0.377 µM and 1.02 µM with SNB-75 CNS; 0.224 µM and 0.53 µM with RXF 393 renal; 0.428 µM and 0.903 µM in the assay with 786-0 renal; 0.283 µM and 0.594 µM in the assay with SW-620 colon. Moreover, the GI50 in the assay on A549 NSCLC is 0.377 µM and 1.31 µM; with MCF7 breast, 0.72 µM and 1.29 µM; with PC-3 prostate, 1.14 µM and 2.19 µM; with HS 578T breast, 0.364 µM and 0.544 µM. Moreover, the TGI is 1.64 µM and 4.69 µM in the assay with OVCAR-5 ovarian; 2.86 µM in the assay with MALME-3M melanoma; 1.66 µM and 3.03 µM in the assay with SNB-75 CNS; 0.972 µM and 2.21 µM with RXF 393 renal; 1.69 µM and 4.1 µM in the assay with 786-0 renal; 1.52 µM and 4.12 µM in the assay on SW-620 colon. Besides, the TGI in the assay on A549 NSCLC is 1.55 µM and 3.79 µM; in the assay with MCF7 breast it was 2.17 µM and 4.42 µM; in the assay on PC-3 prostate, 3.2 µM and 5.59 µM; in the assay on HS 578T breast it was 2.52 µM.
For the compound `COc1ccc(C(OCC2OC(n3ccc(NC(=O)c4ccccc4)nc3=O)C(O)C2O)(c2ccccc2)c2ccccc2)cc1` (stereo not given), the TGI in the assay on OVCAR-5 ovarian came to 3.79 µM; in the assay on MALME-3M melanoma it was 3.73 µM; with SNB-75 CNS, 22 µM; in the assay on RXF 393 renal it was 10.8 µM; with 786-0 renal, 3.69 µM; with SW-620 colon it was 5.8 µM. Moreover, the TGI with A549 NSCLC came out at 14.9 µM; with MCF7 breast, 4.26 µM; in the assay on PC-3 prostate, 8.28 µM; in the assay with HS 578T breast it was 4.86 µM.
For the compound `CC(C)(C)c1ccc(OCCCCCCN2CCNCC2)cc1`, the GI50 with OVCAR-5 ovarian is 13.7 µM; in the assay on MALME-3M melanoma, 3.27 µM; in the assay on SNB-75 CNS it was 3.12 µM; in the assay on RXF 393 renal, 1.91 µM; with 786-0 renal, 3.34 µM; in the assay on SW-620 colon, 2.14 µM. The GI50 in the assay on A549 NSCLC was 6.95 µM; in the assay on MCF7 breast, 3.03 µM; with PC-3 prostate, 8.28 µM; in the assay on HS 578T breast, 6.15 µM. The TGI is 29.4 µM in the assay with OVCAR-5 ovarian; 13.1 µM in the assay on MALME-3M melanoma; 16 µM in the assay on SNB-75 CNS; 4.12 µM in the assay on RXF 393 renal; 11.6 µM in the assay with 786-0 renal; 5.19 µM in the assay on SW-620 colon. Further, the TGI in the assay with A549 NSCLC was 21.2 µM; with MCF7 breast it was 10.3 µM; in the assay with PC-3 prostate, 24.4 µM; in the assay with HS 578T breast, 25.1 µM.
With `O=C(N/N=C/c1ccc2c(c1)CCC2)c1ccccc1O`, the TGI is more than 100 µM with OVCAR-5 ovarian; 61.5 µM in the assay on MALME-3M melanoma; 38 µM in the assay on SNB-75 CNS; 62 µM in the assay on RXF 393 renal; 45 µM with 786-0 renal; more than 100 µM with SW-620 colon. The TGI with A549 NSCLC was 57.5 µM; in the assay on MCF7 breast, 34 µM; with PC-3 prostate it was 53.4 µM; in the assay on HS 578T breast it was 71 µM.
In the case of `CC(C)CC(CC1=CCC2CC1C2(C)C)C1=C(O)C(C)(C)C(=O)C(C)(C)C1=O` (stereo not given), the GI50 in the assay on OVCAR-5 ovarian is 0.386 µM; in the assay with MALME-3M melanoma, 0.295 µM; in the assay with SNB-75 CNS, 0.24 µM; with RXF 393 renal, 0.434 µM; in the assay on 786-0 renal, 0.363 µM; in the assay with SW-620 colon, 0.4 µM. Besides, the GI50 in the assay on A549 NSCLC is 0.359 µM; in the assay on MCF7 breast, 0.303 µM; with PC-3 prostate, 0.318 µM; with HS 578T breast, 0.366 µM. The TGI in the assay on OVCAR-5 ovarian was more than 100 µM; in the assay on MALME-3M melanoma, 1.13 µM; with SNB-75 CNS, 9.67 µM; in the assay with RXF 393 renal, 3.83 µM; in the assay with 786-0 renal, more than 100 µM; in the assay with SW-620 colon, more than 100 µM. Also, the TGI in the assay with A549 NSCLC is more than 100 µM; in the assay with MCF7 breast it was more than 100 µM; in the assay with PC-3 prostate, more than 100 µM; in the assay on HS 578T breast it was 3.81 µM.
Regarding `COc1ccc(-c2cc(-c3ccccc3)nc(SCCCC(=O)NO)n2)cc1`, the GI50 in the assay on OVCAR-5 ovarian is 0.979 µM; in the assay on MALME-3M melanoma it was 1 µM; in the assay with SNB-75 CNS, 0.964 µM; in the assay with RXF 393 renal, 0.338 µM; in the assay with 786-0 renal, 0.573 µM; in the assay with SW-620 colon it was 0.484 µM. The GI50 with A549 NSCLC was 1.74 µM; in the assay with MCF7 breast it was 1.9 µM; in the assay with PC-3 prostate, 1.61 µM; in the assay on HS 578T breast, 1.66 µM. For the same compound, the TGI was determined as 6.09 µM in the assay with OVCAR-5 ovarian; 4.82 µM with MALME-3M melanoma; 4.95 µM in the assay on SNB-75 CNS; 1.4 µM in the assay on RXF 393 renal; 3.49 µM in the assay on 786-0 renal; 4.85 µM in the assay on SW-620 colon. In addition, the TGI with A549 NSCLC amounted to 8.45 µM; with MCF7 breast, 10 µM; with PC-3 prostate, 8.39 µM; in the assay on HS 578T breast, 9.27 µM.
`N=C(N)c1ccc(N2CCCN(c3ccc(C(=N)N)cc3)CC2)cc1`: the GI50 with OVCAR-5 ovarian is more than 100 µM; in the assay on MALME-3M melanoma, 39.6 µM; with SNB-75 CNS, more than 100 µM; with RXF 393 renal, 98.2 µM; in the assay with 786-0 renal, more than 100 µM; in the assay on SW-620 colon, more than 100 µM. Moreover, the GI50 with A549 NSCLC was 40.5 µM; with MCF7 breast it was 52.3 µM; in the assay on PC-3 prostate it was more than 100 µM; with HS 578T breast, 32.4 µM. Besides, the TGI in the assay with OVCAR-5 ovarian, with MALME-3M melanoma, in the assay with SNB-75 CNS, in the assay on RXF 393 renal, in the assay on 786-0 renal and in the assay with SW-620 colon was more than 100 µM each time. For the same compound, the TGI was more than 100 µM in the assay on A549 NSCLC, more than 100 µM in the assay with MCF7 breast, more than 100 µM in the assay with PC-3 prostate and 96.9 µM with HS 578T breast.
